# Experimental data taken from article PMC11740379, “Novel Enyne-Modified 1,4-Thiazepines as Epidermal Growth Factor Receptor Inhibitors: Anticancer and Computational Studies” (ACS Omega, 2024).
# Like-named read-outs stand apart in the source and are kept apart here.
# What was measured:
# [1] = system: MCF-7 cells; test: XTT cytotoxicity assay, breast cancer cells; assay type: cell-based, human
# Procedure: (§1) The cells were cultured in RPMI medium (Sigma) supplemented with 10% heat-inactivated fetal bovine serum, 1% penicillin, and 1% L-glutamine, and incubated in a humidified CO2 atmosphere at 37 °C.
# (§2) To evaluate the cytotoxic effects of TZEPs, which were dissolved in dimethyl sulfoxide (DMSO), the XTT assay (2,3-bis(2-methoxy-4-nitro-5-sulfophenyl)-2H-tetrazolium-5-carboxanilide) was employed. […] Following the incubation, 100 μL of XTT was added to each well, and the plates were incubated for an additional 4 h at 37 °C. The resulting color change was measured by recording the absorbance at 570 nm using a microplate reader (Tecan).
# (§3) Conversely, an SI less than 1 means the drug is more toxic to normal cells than to target cells, which is undesirable in therapeutic contexts.
# [2] = system: A549 cells; test: Annexin V-FITC/PI apoptosis detection by flow cytometry; assay type: cell-based, human; details: A549, IC50 concentration, 72 h
# Description: (§4) Annexin V, a protein with a high affinity for phosphatidylserine (PS), is pivotal in detecting apoptosis. Normally, PS is located in the inner leaflet of the plasma membrane, but during apoptosis, it moves to the outer leaflet, making it a key marker for apoptotic cells.[16] Annexin V binds specifically to PS on the surface of these cells. A secondary dye like propidium iodide (PI) is used to distinguish apoptotic cells from viable ones with intact membranes. We can identify and quantify viable cells (annexin V–, PI–) and apoptotic cells (annexin V+, PI+) by analyzing fluorescence patterns. Here, we employed the FITC Annexin V Apoptosis Detection Kit I from BD Pharmingen. Cells were seeded at a density of 10^6 cells per well in a 6-well plate and exposed to IC50 concentration of TZEP7 for 72 h. Following treatment, cells were rinsed with cold PBS, resuspended in 1 mL of 1× Binding Buffer, and stained with 5 μL of Annexin V FITC and 5 μL of PI. After vortexing, the samples were incubated at room temperature (25 °C) for 15 min in the dark. Postincubation, 400 μL of 1× Binding Buffer was added to each sample, and apoptosis was measured using a BD Accuri C6 Flow Cytometer. Cisplatin was used as an apoptosis-inducing reference drug.
# [3] = system: PC-3 cells; test: as above; assay type: cell-based, human; details: PC-3, IC50 concentration, 72 h
# Description: as §4
# [4] = system: MCF-7 cells; test: as above; assay type: cell-based, human; details: MCF-7, IC50 concentration, 72 h
# Description: as §4
# [5] = system: A549 cells; test: XTT cytotoxicity assay, lung cancer cells; assay type: cell-based, human; details: for IC50: A549
# Procedure: as §1, §2, §3
# [6] = target: EGFRWT kinase (Homo sapiens, UniProt P00533); test: EGFR kinase inhibition assay (HTRF KinEASE-TK); assay type: biochemical
# Sequence of EGFRWT kinase (P00533 25-1210): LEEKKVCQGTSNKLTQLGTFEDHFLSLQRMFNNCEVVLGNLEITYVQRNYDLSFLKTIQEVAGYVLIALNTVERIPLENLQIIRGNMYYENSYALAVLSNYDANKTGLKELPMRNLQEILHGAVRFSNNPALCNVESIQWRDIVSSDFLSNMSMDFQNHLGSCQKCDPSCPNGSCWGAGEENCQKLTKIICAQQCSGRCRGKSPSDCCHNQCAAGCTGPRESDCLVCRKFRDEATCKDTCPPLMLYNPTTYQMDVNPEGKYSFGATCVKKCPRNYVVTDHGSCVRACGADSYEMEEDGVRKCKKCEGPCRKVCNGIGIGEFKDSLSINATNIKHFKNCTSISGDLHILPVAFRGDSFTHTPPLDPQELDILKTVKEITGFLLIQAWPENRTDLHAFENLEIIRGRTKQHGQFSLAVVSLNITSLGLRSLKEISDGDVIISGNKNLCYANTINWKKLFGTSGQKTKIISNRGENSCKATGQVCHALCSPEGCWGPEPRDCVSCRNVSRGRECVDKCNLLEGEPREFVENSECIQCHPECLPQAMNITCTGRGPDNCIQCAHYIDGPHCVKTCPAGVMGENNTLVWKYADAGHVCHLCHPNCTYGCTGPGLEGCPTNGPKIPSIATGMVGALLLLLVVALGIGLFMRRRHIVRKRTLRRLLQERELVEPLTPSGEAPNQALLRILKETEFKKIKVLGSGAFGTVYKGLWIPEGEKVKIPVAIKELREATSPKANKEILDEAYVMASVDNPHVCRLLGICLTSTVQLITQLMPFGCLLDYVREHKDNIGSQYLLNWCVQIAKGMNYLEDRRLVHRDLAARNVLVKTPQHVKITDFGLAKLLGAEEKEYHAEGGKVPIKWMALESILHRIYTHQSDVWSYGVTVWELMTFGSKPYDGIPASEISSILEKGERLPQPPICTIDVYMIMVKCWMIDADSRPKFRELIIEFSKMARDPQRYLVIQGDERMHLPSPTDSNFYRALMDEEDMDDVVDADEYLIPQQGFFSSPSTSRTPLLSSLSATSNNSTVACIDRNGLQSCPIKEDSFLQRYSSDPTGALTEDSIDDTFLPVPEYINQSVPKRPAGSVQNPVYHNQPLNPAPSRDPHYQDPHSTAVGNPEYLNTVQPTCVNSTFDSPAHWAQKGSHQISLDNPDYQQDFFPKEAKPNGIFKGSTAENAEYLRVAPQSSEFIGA
# Procedure: The inhibitory effects of the target compounds on various EGFR kinases were assessed using a homogeneous time-resolved fluorescence (HTRF) assay, employing the HTRF KinEASE-TK kit (Cat# 62TK0PEC, Cisbio).[18] TZEP7 was tested at a range of diluted concentrations in the presence of 1% dimethyl sulfoxide (DMSO), with the kinase and compounds preincubated for 5 min. The reactions were initiated by adding ATP and TK-substrate-biotin, followed by a 60 min incubation at room temperature. […] After a 1 h incubation of the plate, readings were taken on a microplate reader under standard HTRF conditions. IC50 values were calculated using GraphPad Prism 5.0 software. Each reaction was duplicated, and at least three independent determinations were conducted. The data were analyzed using GraphPad Prism.
smiles,measurement,setting,value
Cc1cc(C2=NCC(=CC#Cc3ccccc3)SC(c3ccc(Cl)cc3)=C2)ccc1F [TZEP7],viability at 0.1 µM,"[1]; Homo sapiens, MCF7, MCF-7, 0.1 μM, read-out: cell viability",68%
same,viability at 1 µM,"[1]; Homo sapiens, MCF7, MCF-7, 1 μM, read-out: cell viability",54%
same,viability at 10 µM,"[1]; Homo sapiens, MCF7, MCF-7, 10 μM, read-out: cell viability",44%
same,viability at 50 µM,"[1]; Homo sapiens, MCF7, MCF-7, 50 μM, read-out: cell viability",28%
same,viability at 100 µM,"[1]; Homo sapiens, MCF7, MCF-7, 100 μM, read-out: cell viability",18%
same,IC50,"[1]; Homo sapiens, MCF7, XTT assay, exposure time of the IC50 not stated (24, 48, 72 h tested), read-out: IC50, breast cancer (MCF-7)",14.1 ± 2.1 µM
same,IC50,"[1]; Homo sapiens, MCF7, dose–response curve of Figure 2, read-out: IC50, MCF-7, dose–response curve",14.2 µM
same,"Selectivity index (SI), breast cancer (MCF-7)",[1]; versus normal cells HEK-293,3.85
same,cells in early apoptosis,[2],15.1%
same,cells in late apoptosis,[2],68.7%
same,cells in early apoptosis,[3],13.7%
same,cells in late apoptosis,[3],65.6%
same,cells in early apoptosis,[4],22.4%
same,cells in late apoptosis,[4],68.5%
same,IC50,"[5]; Homo sapiens, XTT assay, exposure time of the IC50 not stated (24, 48, 72 h tested), read-out: IC50, lung cancer (A549)",12.7 ± 2 µM
same,IC50,"[5]; Homo sapiens, dose–response curve of Figure 2, read-out: IC50, A549, dose–response curve",12.1 µM
same,viability at 0.1 µM,"[5]; Homo sapiens, A549, 0.1 μM, read-out: cell viability",68%
same,viability at 1 µM,"[5]; Homo sapiens, A549, 1 μM, read-out: cell viability",53%
same,viability at 10 µM,"[5]; Homo sapiens, A549, 10 μM, read-out: cell viability",40%
same,viability at 50 µM,"[5]; Homo sapiens, A549, 50 μM, read-out: cell viability",30%
same,viability at 100 µM,"[5]; Homo sapiens, A549, 100 μM, read-out: cell viability",10%
same,"Selectivity index (SI), lung cancer (A549)",[5]; versus normal cells HEK-293,4.27
same,IC50,[6],0.38 µM
same,IC50,[6]; A549 cells,0.36 µM
